Laboratory results published in patent publication US20260283950A1, “TRI-AZOLE ANTIFUNGAL COMPOSITIONS” (priority 2023, published 2026).
Values belong to the compound of their own block, whether it stands above or below them.

Key:
[1] = Preparation of solutions in semifluorinated alkanes, appearance of the composition; assay type: physicochemical
Protocol: 14 mg efinaconazole (purity >99%) is weighed in a 5-ml glass vial; 2 ml F6H8 (Novaliq, purity >99%) is added into the vial by using a pipette, closed with aluminium crimp cap and shaken for 4 hours at 280 mpm, at RT.
20 mg efinaconazole (purity >99%) is weighed in a 5-ml glass vial; the needed volume of the cosolvent is added into the vial by using a pipette; the vial is shaken by hand gentle; the needed volume of F6H8 (Novaliq, purity >99%) is added by using a pipette, closed with aluminium crimp cap and shaken for 4 hours at 280 mpm, at RT.
Following the procedure described in the Examples 1 and 2, the following compositions were prepared (Table 1):
20 mg terbinafine (free base; purity >98%) is weighed in a 5-ml glass vial; 2 ml F6H8 (Novaliq, purity >99%) is added into the vial by using a pipette, closed with aluminium crimp cap and shaken overnight at 280 mpm, at RT.
Following the aforementioned procedure the following compositions were prepared (Table 6): […]

[2] = test system: T. interdigitale; experiment: In vitro nail penetration/inhibition model (Bovine Hoof Sheets soaked in product, zone of inhibition); assay type: cell-based; settings: BHS soaked 24 hours in product, incubation at 28° C. 5 days
Protocol: Three test products containing 0.1% to 10% efinaconazole were tested in vitro for their capabilities to inhibit growth of a representative dermatophyte (T. interdigitale) that is known to cause onychomycosis and tinea pedis in humans: • (a) 0.1% efinaconazole, dissolved in a mixture of F6H8 and 2-propanol (10:1 v/v %), non-aqueous (8-9), • (b) 1.0% efinaconazole, dissolved in a mixture of F6H8 and 2-propanol (9:1 v/v %), non-aqueous (4-7), • (c) 10% efinaconazole, aqueous commercial product (“Jublia”; Bausch Health, Bridgewater, USA) (10-11). As reference products, DMSO was utilized as negative control (1), terbinafine (100 μg/ml in DMSO) as positive control (2) and F6H8 as vehicle control (3). […] Bovine Hoof Sheets (BHS; 400 μm thickness, 16 mm diameter), an established in vitro surrogate for human nails in transungual permeation studies, were soaked in excess in the three test products and the three reference products for 24 hours. Afterwards the BHS were taken from the soaking baths and remaining residues of the test and reference products were thoroughly removed. Then, BHS were transferred and placed onto freshly plated T. interdigitale culture plates. […] Experimental details and results are depicted in Table 2 below: […]

- Appearance ([1]; 7 mg/mL efinaconazole in F6H8, no cosolvent): clear solution
- Appearance ([1]; 10 mg/mL efinaconazole, F6H8 (90 vol %), 2-propanol (10 vol %)): clear solution
- Appearance ([1]; 15 mg/mL efinaconazole, F4H5 (90 vol %), 2-propanol (10 vol %)): clear solution
- Appearance ([1]; 15 mg/mL efinaconazole, F4H10 (90 vol %), 2-propanol (10 vol %)): clear solution
- Appearance ([1]; 15 mg/mL efinaconazole, F6H8 (85 vol %), 2-propanol (10 vol %), 1-Methyl-2-pyrrolidon (5 vol %)): clear solution
- Appearance ([1]; 15 mg/mL efinaconazole, F6H8 (85 vol %), 2-propanol (10 vol %), Ethyl acetate (5 vol %)): clear solution
- Appearance ([1]; 15 mg/mL efinaconazole, F6H8 (85 vol %), 2-propanol (10 vol %), N,N-Dimethyl acetamide (5 vol %)): clear solution
- Appearance ([1]; 15 mg/mL efinaconazole, F6H8 (85 vol %), 2-propanol (10 vol %), N,N-Dimethyl formamide (5 vol %)): clear solution
- Appearance ([1]; 25 mg/mL efinaconazole, F6H8 (75 vol %), 2-propanol (25 vol %)): clear solution
SMILES: C=C1CCN([C@H](C)[C@](O)(Cn2cncn2)c2ccc(F)cc2F)CC1 [Efinaconazole, efinaconazole]

- Appearance ([1]; 1 mg/mL terbinafine in F4H5, no cosolvent): clear solution
- Appearance ([1]; 1 mg/mL terbinafine in F6H8, no cosolvent): clear solution
- Appearance ([1]; 5 mg/mL terbinafine in F4H5, no cosolvent): clear solution
- Appearance ([1]; 5 mg/mL terbinafine in F6H8, no cosolvent): clear solution
- Appearance ([1]; 10 mg/mL terbinafine in F6H8, no cosolvent): clear solution
- Appearance ([1]; 10 mg/mL terbinafine, F4H5, ethanol (10 vol %)): clear solution
- Appearance ([1]; 10 mg/ml terbinafine, F6H8 (90 vol %), 2-propanol (10 vol %)): clear solution
- Appearance ([1]; 15 mg/mL terbinafine in F6H8, no cosolvent): clear solution
- Appearance ([1]; 20 mg/mL terbinafine, F6H8 (90 vol %), ethanol (10 vol %)): clear solution
- Appearance ([1]; 20 mg/ml terbinafine, F6H8 (90 vol %), 2-propanol (10 vol %)): clear solution
SMILES: CN(C/C=C/C#CC(C)(C)C)Cc1cccc2ccccc12 [terbinafine]
- Results (inhibition zone, in words) [2]: nearly complete inhibition
- zone of inhibition at 100 µg/mL ([2]; Trichophyton interdigitale, 120 h, read-out: zones of inhibition): 56 to 58 mm
